Measured values reported in patent publication US20200093838A1, “METHODS FOR TREATING AND PREVENTING ALLERGIES AND ACUTE ALLERGIC RESPONSES” (priority 2015, published 2020).
Entries after “also recorded” stand apart in the source; their conditions may differ.

Tests used:
[1] = system: Cyp11a1; conditions: inhibition of the enzymatic activity of CYP11A1; cited from earlier work
[2] = system: sensitized and challenged CD8-deficient mice; conditions: inhibition of the enzymatic activity of CYP11A1; cited from earlier work
[3] = system: Tbx21; assay: qPCR gene expression of Tbx21 in CD8+ T cells; type: cell-based, mouse; conditions: IL-4 and 1,25D3 present during CD8+ T-cell differentiation
Text: (§1) J. Allergy Clin. Immunol. 121, 864-871 e864 (2008)).

[4] = system: sensitized and challenged CD8-deficient mice; assay: Secondary allergen challenge model with adoptive transfer of 1,25D3-treated CD8+ T cells: airway function (AHR); type: in vivo, mouse; conditions: transfer of IL-2-differentiated CD8+ T cells cultured with 1,25D3 (100 nM or 1 μM)
Method: 190, 4056-4065 (2013).; Ohnishi, H., et al. […] J. Allergy Clin. Immunol. 121, 864-871 e864 (2008)) with some modifications. CD8-deficient mice were sensitized with 20 μg of OVA (Calbiochem, La Jolla, Calif.) emulsified in 2.25 mg of alum (AlumImuject; Pierce, Rockford, Ill.) on days 0 and 14 by intraperitoneal injection. […] Omron Healthcare, Kyoto, JP). […] Airway function was measured and samples were collected 48 hours after the secondary challenge. […] Am. J. Respir. Crit. Care Med. 163, 173-184 (2001)). […] J. Allergy Clin. Immunol. 121, 864-871 e864 (2008)) by measuring changes in airway resistance (RL) in response to increasing doses of inhaled methacholine (MCh, Sigma-Aldrich, St. Louis, Mo.). Data were presented as percentage change from the baseline RL values after saline inhalation.

[5] = system: CD8+ T cells; assay: Intracellular staining (flow cytometry) of IFN-γ and IL-13 in CD8+ T cells differentiated in IL-2 or IL-2+IL-4; type: cell-based, mouse
Method: as §1
Flow cytometry analyses: For intracellular staining, 1×10^6/ml cells were washed twice with PBS containing 1% BSA, stimulated with 1 μg/ml […] in the presence of 2 μM monensin at 37° C. for 4 hours. After fixation with 4% paraformaldehyde (Electron Microscopy Sciences, Hatfield, Pa.) and permeabilization with 0.1% saponin (Sigma-Aldrich, St. Louis, Mo.), cells were washed twice with PBS containing 1% BSA, then incubated with anti-mouse CD16/CD32 (2.4G2, BD Bioscience, San Jose, Calif.) at 4° C. for 5 minutes, then stained with FITC labeled anti-mouse IFN-γ (XMG 1.2, eBioscience, San Diego, Calif.) and PE-labeled anti-mouse IL-13 (eBio13A, eBioscience, San Diego, Calif.). […] J. Allergy Clin. Immunol. 121, 864-871 e864 (2008)).

[6] = system: sensitized and challenged CD8-deficient mice; assay: Secondary allergen challenge model with adoptive transfer: bronchoalveolar lavage (BAL) fluid analyses; type: in vivo, mouse
Method: 190, 4056-4065 (2013).; Ohnishi, H., et al. […] J. Allergy Clin. Immunol. 121, 864-871 e864 (2008)) with some modifications. CD8-deficient mice were sensitized with 20 μg of OVA (Calbiochem, La Jolla, Calif.) emulsified in 2.25 mg of alum (AlumImuject; Pierce, Rockford, Ill.) on days 0 and 14 by intraperitoneal injection. […] Omron Healthcare, Kyoto, JP). […] Airway function was measured and samples were collected 48 hours after the secondary challenge. […] Am. J. Respir. Crit. Care Med. 163, 173-184 (2001)). Bronchoalveolar lavage (BAL) fluid analyses: After measurement of AHR, lungs were lavaged via the tracheal tube with 1 ml of HBSS. […] J. Allergy Clin. Immunol. 121, 864-871 e864 (2008)). […] J. Allergy Clin. Immunol. 121, 864-871 e864 (2008)).

[7] = system: Gata3; assay: qPCR gene expression of Gata3 in CD8+ T cells; type: cell-based, mouse; conditions: IL-4 and 1,25D3 present during CD8+ T-cell differentiation
Text: as §1

[8] = system: Cyp11a1; assay: CYP11A1 immunoblot analyses of CD8+ T cells; type: cell-based, mouse; conditions: 100 nM or 1 μM during differentiation in IL-2+IL-4
Text: J. Allergy Clin. Immunol. 121, 864-871 e864 (2008)). […] Samples were run by sodium dodecyl sulfate polyacrylamide gel electrophoresis (SDS-PAGE) and transferred to nitrocellulose membranes. […] Horseradish peroxidase-conjugated anti-rabbit IgG (GE Healthcare, Hertfordshire, UK) was used to detect CYP11A1 protein. Mouse monoclonal anti-β-actin antibody (Sigma-Aldrich, St. Louis, Mo.) was used as an internal control. Immunoreactive bands were quantified by densitometric quantification of autoradiographs using Image J (NIMH, Bethesda, Md.), and expressed as relative CYP11A1 normalized to β-actin (Sigma-Aldrich, St. Louis, Mo.).

[9] = system: Cyp11a1; assay: qPCR gene expression of Cyp11a1 in CD8+ T cells; type: cell-based, mouse; conditions: 100 nM or 1 μM during differentiation in IL-2+IL-4
Text: as §1

[10] = system: Cyp11a1; assay: ELISA for pregnenolone in supernatants of CD8+ T cells (CYP11A1 enzymatic activity); type: cell-based, mouse; conditions: cells cultured in the presence of 1,25D3 (100 nM or 1 μM)
Text: as §1

[11] = system: CD8+ T cells; assay: Cell viability (total cell numbers) during CD8+ T cell differentiation; type: cell-based, mouse; conditions: IL-2 or IL-2+IL-4; 100 nM or 1 μM; days 0 and 4
Text: Data (mean±SEM) are from five experiments. **p<0.01 compared to the IL-2 group on day 4.
as §1

[12] = system: CD4+ T cells from steroid-resistant asthmatics; conditions: 500 nM; cited from earlier work
[13] = system: sensitized and challenged CD8-deficient mice; assay: Secondary allergen challenge model with adoptive transfer: lung histology (PAS); type: in vivo, mouse; conditions: recipients of 1,25D3-treated CD8+ T cells
Method: 190, 4056-4065 (2013).; Ohnishi, H., et al. […] J. Allergy Clin. Immunol. 121, 864-871 e864 (2008)) with some modifications. CD8-deficient mice were sensitized with 20 μg of OVA (Calbiochem, La Jolla, Calif.) emulsified in 2.25 mg of alum (AlumImuject; Pierce, Rockford, Ill.) on days 0 and 14 by intraperitoneal injection. […] Omron Healthcare, Kyoto, JP). […] Airway function was measured and samples were collected 48 hours after the secondary challenge. […] Am. J. Respir. Crit. Care Med. 163, 173-184 (2001)). Lung histology: […] Paraffin sections (5-μm thick) were stained with periodic acid-Schiff (PAS).

[14] = IL-2 + IL-4 + TCR + VitD (100 nM)
[15] = IL-2 + IL-4 + TCR + VitD (100 nM), listed as VitD
[16] = IL-2 + IL-4 + TCR + VitD (1 μM)
[17] = cultured with SIINFEKL and IL-2+IL-4, 1,25D3 100 nM, 1 μM during differentiation
[18] = compared to recipients of untreated cells, 1,25D3 100 nM or 1 μM

Compound: CCC1(c2ccc(N)cc2)CCC(=O)NC1=O (stereo not drawn) [AMG, aminoglutethimide]
- conversion of CD8+ T cells to IL-13 production [1]: inhibitory effects
- lung allergic responses in sensitized and challenged CD8-deficient mice [2]: failure to restore

Compound: C=C1/C(=C\C=C2/CCC[C@]3(C)[C@@H]([C@H](C)CCCC(C)(C)O)CC[C@@H]23)C[C@@H](O)C[C@@H]1O [1,25D3, 1,25-dihydroxy vitamin D3]
- Tbx21 gene expression [3]: only marginally altered; also recorded: affected
- airway hyperresponsiveness (AHR) [4]: fails to induce; also recorded: failed to restore
- cytokine profiles (IFN-γ and IL-13) of differentiated CD8+ T cells ([5]; 1,25D3 (100 nM or 1 μM) added only during antigen (SIINFEKL) re-stimulation phase, last 4 hours, IL-2+IL-4): does not alter; also recorded: unaffected
- % of positive cells, IFN-γ+ [5, 14]: 24.5±4.8%
- % of positive cells, IFN-ν+ IL-13+ [5, 14]: 4%
- % of positive cells, IFN-ν− IL-13− [5, 14]: 55.1%
- % of positive cells, IL-13+ [5, 14]: 11.3±4.8%
- % of positive cells, IFN-γ+ [5, 15]: 24.5%
- % of positive cells, IL-13+ [5, 15]: 11.3%
- % of positive cells, IFN-γ+ [5, 16]: 30.6%
- % of positive cells, IFN-ν+ IL-13+ [5, 16]: 3.5%
- % of positive cells, IFN-ν− IL-13− [5, 16]: 53.9%
- % of positive cells, IL-13+ [5, 16]: 8.3%
- % of positive cells, IFN-γ+ ([5]; IL-2 + IL-4 + VitD (100 nM)): 2.2%
- % of positive cells, IFN-ν+ IL-13+ ([5]; IL-2 + IL-4 + VitD (100 nM)): 0.2%
- % of positive cells, IFN-ν− IL-13− ([5]; IL-2 + IL-4 + VitD (100 nM)): 92.7%
- % of positive cells, IL-13+ ([5]; IL-2 + IL-4 + VitD (100 nM)): 4.6%
- % of positive cells, IFN-γ+ ([5]; IL-2 + IL-4 + VitD (1 μM)): 2.7%
- % of positive cells, IFN-ν+ IL-13+ ([5]; IL-2 + IL-4 + VitD (1 μM)): 0.2%
- % of positive cells, IFN-ν− IL-13− ([5]; IL-2 + IL-4 + VitD (1 μM)): 92.9%
- % of positive cells, IL-13+ ([5]; IL-2 + IL-4 + VitD (1 μM)): 3.8%
- % of positive cells, IFN-γ+ ([5]; IL-2 + TCR + VitD (100 nM)): 76.8%
- % of positive cells, IFN-ν+ IL-13+ ([5]; IL-2 + TCR + VitD (100 nM)): 0.4%
- % of positive cells, IFN-ν− IL-13− ([5]; IL-2 + TCR + VitD (100 nM)): 22.6%
- % of positive cells, IL-13+ ([5]; IL-2 + TCR + VitD (100 nM)): 0.1%
- % of positive cells, IFN-γ+ ([5]; IL-2 + TCR + VitD (1 μM)): 76.2%
- % of positive cells, IFN-ν+ IL-13+ ([5]; IL-2 + TCR + VitD (1 μM)): 0.4%
- % of positive cells, IFN-ν− IL-13− ([5]; IL-2 + TCR + VitD (1 μM)): 23.7%
- % of positive cells, IL-13+ ([5]; IL-2 + TCR + VitD (1 μM)): 0.1%
- % of positive cells, IFN-γ+ ([5]; IL-2 + VitD (100 nM)): 3.1%
- % of positive cells, IFN-ν+ IL-13+ ([5]; IL-2 + VitD (100 nM)): 0%
- % of positive cells, IFN-ν− IL-13− ([5]; IL-2 + VitD (100 nM)): 96.8%
- % of positive cells, IL-13+ ([5]; IL-2 + VitD (100 nM)): 0.2%
- % of positive cells, IFN-γ+ ([5]; IL-2 + VitD (1 μM)): 4.3%
- % of positive cells, IFN-ν+ IL-13+ ([5]; IL-2 + VitD (1 μM)): 0%
- % of positive cells, IFN-ν− IL-13− ([5]; IL-2 + VitD (1 μM)): 95.8%
- % of positive cells, IL-13+ ([5]; IL-2 + VitD (1 μM)): 0.2%
- IFN-γ+ cells (change) [5, 17]: increase
- percentage of IL-13+ cells (change) [5, 17]: dose-dependent decrease
- IFN-γ-producing capacity of Tc1 cells ([5]; differentiated in IL-2 alone, 1,25D3 added during differentiation): not affected
- IL-4 level in BAL fluid [6, 18]: decreased; also recorded: significantly lower
- IL-5 level in BAL fluid [6, 18]: decreased; also recorded: significantly lower
- IL-13 level in BAL fluid [6, 18]: decreased; also recorded: significantly lower
- airway inflammation (cell composition in BAL fluid) ([6]; transfer of IL-2-differentiated CD8+ T cells cultured with 1,25D3 (100 nM or 1 μM)): failed to restore
- Gata3 gene expression [7]: only marginally altered; also recorded: affected
- CYP11A1 protein levels [8]: decreased
- CYP11A1 transcript levels [9]: decreased
- pregnenolone levels in supernatants (CYP11A1 enzymatic activity) [10]: markedly reduced; also recorded: decreased
- effect on cell viability [11]: not altered; also recorded: no significant effect
- in vitro effectiveness in CD4+ T cells from steroid-resistant asthmatics [12]: effective
- inflammation in lung sections [13]: less inflammation
- numbers of PAS+ mucus-containing goblet cells [13]: prevents; also recorded: significantly decreased numbers
